Results: US8329895B2, “Cefdinir acid double salt and method for producing the same” (Zhejiang Adamerck Biopharmlabs Inc., priority 2008, dated 2012)
Counter-ions that a name gives are not always drawn. Like-named read-outs stand apart in the source and are kept apart here.

Legend:
[1] = Bioavailability comparison in beagles, capsules by intragastric administration, cefdinir concentration in venous blood; assay type: in vivo; conditions: for AUC(0-t) / Cmax / Time to peak / AUC(0-10): capsules containing 200 mg of cefdinir, intragastric administration; for AUC(0-t) / AUC(0-10): 0-10 h; for Cmax: cefdinir in venous blood; for Bioavailability percentage increase: compared with conventional cefdinir capsule
Description: Beagles, half male and half female, with body weight of 10 kg, were starved for 12 hrs and only water fed. The compounds of the invention were formulated into capsules containing 200 mg of cefdinir and fed to beagles by intragastric administration. The control group was administered with conventional cefdinir capsules. 3 hrs later, the beagles were fed with common food. At 0 h, 0.5 h, 1 h, 1.5 h, 2 h, 2.5 h, 3 h, 4 h, 6 h, 8 h, and 10 h after intragastric administration, 0.5 mL of venous blood was collected respectively to measure the concentration of cefdinir.

[2] = Solubility of cefdinir and the double salts in water; assay type: physicochemical
Excerpt: The solubility of the compounds of the invention has been increased by 100 times. Table 1 lists the solubility of the compounds of the invention.)

[3] = background statement; cited from earlier work
[4] = cited from earlier work
[5] = heating; salt disclosed in CN 1,415,615A; cited from earlier work
[6] = both sexes, beagle, dog, venous blood, po, 200 mg
[7] = both sexes, beagle, dog, venous blood, po, 200 mg, read-out: Cmax

Structure (SMILES): C=CC1=C(C(=O)O)N2C(=O)C(NC(=O)/C(=N\O)c3csc(N)n3)C2SC1 (single isomer, unassigned; (-))
- AUC(0-t) [1, 6]: 240 µg·h/mL
- Cmax [1, 7]: 50.2 µg/mL

Structure (SMILES): C=CC1=C(C(=O)O)N2C(=O)C(NC(=O)/C(=N\O)c3csc(N)n3)C2SC1 (single isomer, unassigned; (-)) [Cefdinir ammonium(0.5) hydrogen(1.5) sulfate]
- Solubility [2]: Soluble
- Time to peak [1]: 2.5 h
- AUC(0-10) [1]: 160.31 µg·h/mL
- Cmax [1]: 34.12 µg/mL
- Bioavailability percentage increase [1]: 57%

Structure (SMILES): C=CC1=C(C(=O)O)N2C(=O)C(NC(=O)/C(=N\O)c3csc(N)n3)C2SC1 (single isomer, unassigned; (-)) [Cefdinir potassium(0.5) hydrogen(1.5) sulfate]
- Solubility [2]: Soluble
- Time to peak [1]: 3 h
- AUC(0-10) [1]: 213.40 µg·h/mL
- Cmax [1]: 47.65 µg/mL
- Bioavailability percentage increase [1]: 109%

Structure (SMILES): C=CC1=C(C(=O)O)N2C(=O)C(NC(=O)/C(=N\O)c3csc(N)n3)C2SC1 (single isomer, unassigned; (-)) [Cefdinir sodium(0.5) hydrogen(1.5) sulfate]
- Solubility [2]: Soluble
- Time to peak [1]: 3 h
- Bioavailability percentage increase [1]: 135%

Structure (SMILES): C=CC1=C(C(=O)O)N2C(=O)[C@@H](NC(=O)/C(=N\O)c3csc(N)n3)[C@H]2SC1 [Cefdinir ammonium hydrogen sulfate, (−)-(6R,7R)-7-((Z)-2-(2-aminothiazole-4-yl)-2-hydroxyimino-acetylamino)-8-oxo-3-vinyl-5-thia-1-azabicyclo(4.2.0)oct-2-ene-2-carboxylic acid ammonium hydrogen sulfate]
- Solubility ([2]; ammonium hydrogen sulfate): Slightly soluble
- AUC(0-10) ([1]; ammonium hydrogen sulfate): 202.18 µg·h/mL
- Time to peak ([1]; ammonium hydrogen sulfate): 3 h
- Cmax ([1]; ammonium hydrogen sulfate): 43.63 µg/mL
- Bioavailability percentage increase ([1]; ammonium hydrogen sulfate): 98%

Structure (SMILES): C=CC1=C(C(=O)O)N2C(=O)[C@@H](NC(=O)/C(=N\O)c3csc(N)n3)[C@H]2SC1 [Cefdinir potassium dihydrogen phosphate, (−)-(6R,7R)-7-((Z)-2-(2-aminothiazole-4-yl)-2-hydroxyimino-acetylamino) 8-oxo-3-vinyl-5-thia-1-azabicyclo(4.2.0)oct-2-ene-2-carboxylic acid potassium dihydrogen phosphate]
- AUC(0-10) ([1]; phosphate): 152.15 µg·h/mL
- Cmax ([1]; phosphate): 30.37 µg/mL
- Time to peak ([1]; phosphate): 3 h
- Bioavailability percentage increase ([1]; phosphate): 49%

Structure (SMILES): C=CC1=C(C(=O)O)N2C(=O)[C@@H](NC(=O)/C(=N\O)c3csc(N)n3)[C@H]2SC1 [Cefdinir potassium hydrogen sulfate, (−)-(6R,7R)-7-((Z)-2-(2-aminothiazole-4-yl)-2-hydroxyimino-acetylamino)-8-oxo-3-vinyl-5-thia-1-azabicyclo(4.2.0)oct-2-ene-2-carboxylic acid potassium hydrogen sulfate]
- Solubility ([2]; potassium hydrogen sulfate): Slightly soluble
- AUC(0-t) [1, 6]: 261 µg·h/mL
- Cmax [1, 7]: 54.1 µg/mL
- Time to peak ([1]; potassium hydrogen sulfate): 2.5 h
- Bioavailability percentage increase ([1]; potassium hydrogen sulfate): 156%

Structure (SMILES): C=CC1=C(C(=O)O)N2C(=O)[C@@H](NC(=O)/C(=N\O)c3csc(N)n3)[C@H]2SC1 [Cefdinir sodium dihydrogen phosphate, (−)-(6R,7R)-7-((Z)-2-(2-aminothiazole-4-yl)-2-hydroxyimino-acetylamino)-8-oxo-3-vinyl-5-thia-1-azabicyclo(4.2.0)oct-2-ene-2-carboxylic acid sodium dihydrogen phosphate]
- Solubility ([2]; phosphate): Slightly soluble
- AUC(0-10) ([1]; phosphate): 123.55 µg·h/mL
- Cmax ([1]; phosphate): 27.28 µg/mL
- Time to peak ([1]; phosphate): 2.5 h
- Bioavailability percentage increase ([1]; phosphate): 20%

Structure (SMILES): C=CC1=C(C(=O)O)N2C(=O)[C@@H](NC(=O)/C(=N\O)c3csc(N)n3)[C@H]2SC1 [Cefdinir sodium hydrogen sulfate, (−)-(6R,7R)-7-((Z)-2-(2-aminothiazole-4-yl)-2-hydroxyimino-acetylamino)-8-oxo-3-vinyl-5-thia-1-azabicyclo(4.2.0)oct-2-ene-2-carboxylic acid sodium hydrogen sulfate]
- Solubility ([2]; sodium hydrogen sulfate): Slightly soluble
- AUC(0-10) ([1]; sodium hydrogen sulfate): 255.27 µg·h/mL
- Cmax ([1]; sodium hydrogen sulfate): 65.43 µg/mL
- Time to peak ([1]; sodium hydrogen sulfate): 3 h
- Bioavailability percentage increase ([1]; sodium hydrogen sulfate): 149%

Structure (SMILES): C=CC1=C(C(=O)O)N2C(=O)[C@@H](NC(=O)/C(=N\O)c3csc(N)n3)[C@H]2SC1 [Cefdinir]
- Solubility [2]: hardly soluble
- Solubility in water [3]: insoluble
- bioavailability ([4]; capsule): 16-20%
- bioavailability ([4]; liquid suspension): 25%

Structure (SMILES): C=CC1=C(C(=O)[O-])N2C(=O)C(NC(=O)C(=NO)c3csc(N)n3)C2SC1.[Na+] (stereo not drawn) [sodium cefdinir]
- Temperature at which the salt turns black [5]: 190 °C
- Temperature at which the salt turns yellow [5]: about 160 °C
